PubChem BioAssay (NCI)
Values joined by “and” are separate entries in the source; they are usually repeats but may differ in a detail not shown here. Identical values can stand only once.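 48-hour exposure; five concentrations; linearly interpolated endpoints. GI50 = concentration required for 50% inhibition of growth. TGI is the concentration that stops growth completely.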

Assays:
Assay in all cases: NCI anticancer screen, dose series, 48 h
[1] = system: NCI-H226 lung
[2] = system: KM12 colon
[3] = system: UACC-257 melanoma
[4] = system: SN12C renal
[5] = system: OVCAR-5 ovarian
[6] = system: MCF7 breast
[7] = system: SF-268 CNS
[8] = system: K-562 leukemia
[9] = system: SK-MEL-2 melanoma
[10] = system: RPMI-8226 leukemia

`CN1C(=O)C(N=Nc2ccc([N+](=O)[O-])cc2)SC1=S` (configuration not stated) was tested, and the GI50 [1] was 21 µM and 18 µM, the TGI [1] was over 100 µM and the GI50 [2] was 1.81 µM and 2.53 µM. For the same compound, the TGI [2] was 17.4 µM and > 100 µM, the GI50 [3] was 3.63 µM and 10.9 µM and the TGI [3] was 27.1 µM and 54.4 µM. The GI50 [4] was 4.39 µM and 9.34 µM, the TGI [4] was > 100 µM and 75.9 µM and the GI50 [5] was 10.6 µM and 15.4 µM. The TGI [5] was > 100 µM and 99.6 µM, the GI50 [6] was 6.1 µM and 16.6 µM and the TGI [6] was over 100 µM. The GI50 [7] was 6.1 µM and 17.3 µM, the TGI [7] was 99.5 µM and > 100 µM and the GI50 [8] was 0.625 µM and 2.17 µM. For the same compound, the TGI [8] was over 100 µM, the GI50 [9] was 8.98 µM and 5.29 µM and the TGI [9] was 37.8 µM and 42.5 µM. For the same compound, the GI50 [10] was 2.62 µM and 2.09 µM and the TGI [10] was 52.4 µM and 18 µM.
For `CCOC(=O)C1=C(C)NC2SC(=O)/C(=C\c3cccc(Cl)c3)N2C1c1ccccc1` (configuration not stated), the GI50 [1] was over 100 µM, the TGI [1] was over 100 µM and the GI50 [2] was over 100 µM. For the same compound, the TGI [2] was over 100 µM, the GI50 [3] was over 100 µM and the TGI [3] was over 100 µM. The GI50 [4] was over 100 µM, the TGI [4] was over 100 µM and the GI50 [5] was over 100 µM. The TGI [5] was over 100 µM, the GI50 [6] was 31.2 µM and the TGI [6] was over 100 µM. It also gave a GI50 [7] of over 100 µM, a TGI [7] of over 100 µM and a GI50 [8] of over 100 µM. It also gave a TGI [8] of over 100 µM, a GI50 [9] of over 100 µM and a TGI [9] of over 100 µM. It also gave a GI50 [10] of over 100 µM and a TGI [10] of over 100 µM.
For `Nc1nc(N)c2cc(S(=O)(=O)c3ccc4ccccc4c3)ccc2n1`, the GI50 [1] was 10.8 µM, the TGI [1] was over 100 µM and the TGI [2] was over 100 µM. It also gave a TGI [3] of 2.67 µM, a TGI [4] of over 100 µM and a TGI [5] of over 100 µM. It also gave a GI50 [6] of 5.17 µM, a TGI [6] of over 100 µM and a TGI [7] of over 58.9 µM. It also gave a TGI [8] of over 100 µM, a TGI [9] of over 77.8 µM and a TGI [10] of over 100 µM.
Compound `CCCCCCCCCN=C(N)c1ccc(N2CCN(c3ccc(C(N)=NCCCCCCCCC)cc3)CC2)cc1` has a GI50 [1] of 3.77 µM, a TGI [1] of over 50 µM and a GI50 [2] of 1.7 µM. The TGI [2] was 5.67 µM, the GI50 [3] was 1.2 µM and the TGI [3] was 3.08 µM. The GI50 [4] was 1.52 µM, the TGI [4] was 7.85 µM and the GI50 [5] was 3.13 µM. The TGI [5] was 11 µM, the GI50 [6] was 0.704 µM and the TGI [6] was 1.54 µM. It also gave a GI50 [7] of 1.22 µM, a TGI [7] of 4.04 µM and a GI50 [8] of 1.72 µM. For the same compound, the TGI [8] was 17 µM, the GI50 [9] was 2.88 µM and the TGI [9] was over 50 µM. The GI50 [10] was 1.96 µM and the TGI [10] was over 50 µM.
`O=C1/C(=C/c2ccc(Cl)cc2)CN(Cc2cn(CCCNc3ccnc4cc(Cl)ccc34)nn2)C/C1=C\c1ccc(Cl)cc1` gave a GI50 [1] of 1.92 µM, a TGI [1] of 4.39 µM and a GI50 [2] of 0.291 µM. For the same compound, the TGI [2] was 1.11 µM, the GI50 [3] was 1.72 µM and the TGI [3] was 3.25 µM. It also gave a GI50 [4] of 0.96 µM, a TGI [4] of 2.77 µM and a GI50 [5] of 1.26 µM. The TGI [5] was 3.06 µM, the GI50 [6] was 0.362 µM and the TGI [6] was 1.46 µM. It also gave a GI50 [7] of 0.54 µM, a TGI [7] of 2.01 µM and a GI50 [8] of 0.289 µM. The TGI [8] was 3.79 µM, the GI50 [9] was 2.03 µM and the TGI [9] was 3.71 µM. For the same compound, the GI50 [10] was 0.285 µM and the TGI [10] was 0.878 µM.
